This is an account of results in patent US20230192661A1, “1, 4, 5, 6-TETRAHYDROPYRIMIDINE-2-AMINE DERIVATIVE” (UBE Corporation, priority 2020, published 2023).

For series [1], the target named is T1, αvβ1 (UniProt G3HZ55+P06756).
T1 construct: expressed in transfected cells; host or cells: CHO cells deficient in α5 gene, transfected with αv gene
The series is described as follows: αvβ1 cell adhesion inhibition test (αv-transfected CHO cells on human fibronectin). It counts as cell-based. As to conditions: human fibronectin coating, 1 mM MnCl2, 1 hour, read-out: IC50 (rate of inhibition of cell adhesion, αvβ1). The method, then:
Test Example 1 was performed by partially modifying the method of Reed et al. (Sci Transl Med., 7 (288), 288ra79, 2015).
Human fibronectin (manufactured by Sigma-Aldrich Co. LLC, F0895) was prepared at 1.25 μg/mL with phosphate buffered saline (PBS), dispensed at 100 μL/well to a 96-well plate, and left standing overnight. The plate was washed with Hanks' balanced salt solution (HBSS), then subjected to blocking treatment with Dulbecco's modified Eagle medium (DMEM) containing 1% bovine serum-derived albumin (BSA) (FUJIFILM Wako Pure Chemical Corp., for cell culture, 017-22231), and used as a coated plate in the adhesion test.
αv-transfected cells (CHO cells deficient in α5 gene and transfected with αv gene) cultured in Ham's F-12 medium (FUJIFILM Wako Pure Chemical Corp., 087-08335) containing 10% fetal bovine serum (FBS), 1% penicillin/streptomycin/amphotericin B (manufactured by Thermo Fisher Scientific, Inc., 15240), 1 mM GlutaMAX Supplement (manufactured by Thermo Fisher Scientific, Inc., 35050), and 400 μg/mL hygromycin B (FUJIFILM Wako Pure Chemical Corp., 080-07683) were recovered and suspended in DMEM containing 1 mM MnCl2 (manufactured by Sigma-Aldrich Co. LLC, M1787) to prepare a cell suspension. A test compound dissolved in DMSO was added thereto.
The cell suspension of 1×10^6 cells/mL containing the test compound was added at 100 μL/well to the coated plate and left standing for 1 hour in a 5% CO2 incubator (37° C.). One hour later, the supernatant was removed, and the plate was washed with HBSS. The cells that adhered to each well in the plate were stained with crystal violet, and the cells were lysed, followed by absorbance measurement. Inhibition without substrate coating was defined as 100% inhibition, and inhibition when DMSO was added instead of the test compound was defined as 0% inhibition. The rate of inhibition of cell adhesion by the test compound was calculated according to the following expression.
Rate of inhibition of cell adhesion (%)=[1−{(Absorbance in the case of adding the test compound)−(Absorbance without substrate coating)}/{(Absorbance in the case of adding DMSO)−(Absorbance without substrate coating)}]×100
An IC50 value was calculated from the rate of inhibition of cell adhesion by the test compound. A: IC50<3 nM, B: 3 nM≤IC50<10 nM, C: 10 nM≤IC50<30 nM, D: 30 nM≤IC50<100 nM, or E: IC50≥100 nM.

Series [2] is described as follows: Transcellular transport test using Caco2 cell. It counts as in vitro ADME. Particulars: human, Caco-2; Caco2 monolayer, A-to-B, 10 μM compound, pH 7.4, 90 minutes. As for the experimental part:
Caco2 cells (purchased from ATCC) were cultured in DMEM medium (Thermo Fisher Scientific, Inc., 11965) containing 10% FBS (Thermo Fisher Scientific, Inc., 10082) and 1% penicillin/streptomycin/amphotericin B (Thermo Fisher Scientific, Inc., 15240). A transcellular transport test was carried out in accordance with MultiScreen Caco2 Drug Transport Assembly in a 96-well system (Application Note AN1727EN, MultiScreen Caco-2 Assay System, Merck) by partially modifying it. The Caco2 cells were inoculated at a cell density of 4×10^4 cells/well onto a micropore polycarbonate insert of a 96-well plate (Merck, Millcell-96 culture insert plate 0.4 μm pore size, well membrane area=0.11 cm^2, PSHT004S5) and cultured for 20 to 22 days, and the resulting monolayer was used in the transcellular transport test. The medium of the inoculated cells was replaced with a fresh one every 3 to 4 days.
Apical-to-basolateral (A-to-B) transport in the Caco2 cell monolayer membrane was performed by using HBSS (Thermo Fisher Scientific, Inc., 14025) medium (pH=7.4) containing 20 mM HEPES (Thermo Fisher Scientific, Inc., 15630), and adding HEPES-containing HBSS medium containing 10 μM compound (a 10 mM solution of the compound in DMSO was added at a 1000-fold dilution; final DMSO concentration: 0.1%) at 75 μL/well to the apical side and HEPES-containing HBSS medium supplemented with no compound at 250 μL/well to the basolateral side, followed by culture at 37° C. for 90 minutes. After culture, a 100 μL aliquot was collected from the basolateral side, and the concentration of a permeated compound was measured by LC-MS/MS under measurement conditions mentioned later. Papp (apparent permeability; cm/sec) was calculated from the determined concentration. Papp was determined according to the expression given below by calculating the slope (dA/dt; nmol/sec) of a straight line drawn between two points 0 minutes and zero amount of the compound in a graph plotted with an assay time (90 min) on the abscissa against the amount of the compound in the solution on the permeated side on the ordinate. As for an assay concentration, the concentration in the compound in the HEPES-containing HBSS medium containing the added compound was measured by UV-HPLC under measurement conditions mentioned later.
Papp (cm/sec)=C0×S×(dA/dt)
C0: assay concentration, S: plate membrane area=0.11 cm^2
In general terms: Caco-2 cells form a polarised layer with tight junctions and transporters.

T1 sequence (P06756 31-889 limits assumed): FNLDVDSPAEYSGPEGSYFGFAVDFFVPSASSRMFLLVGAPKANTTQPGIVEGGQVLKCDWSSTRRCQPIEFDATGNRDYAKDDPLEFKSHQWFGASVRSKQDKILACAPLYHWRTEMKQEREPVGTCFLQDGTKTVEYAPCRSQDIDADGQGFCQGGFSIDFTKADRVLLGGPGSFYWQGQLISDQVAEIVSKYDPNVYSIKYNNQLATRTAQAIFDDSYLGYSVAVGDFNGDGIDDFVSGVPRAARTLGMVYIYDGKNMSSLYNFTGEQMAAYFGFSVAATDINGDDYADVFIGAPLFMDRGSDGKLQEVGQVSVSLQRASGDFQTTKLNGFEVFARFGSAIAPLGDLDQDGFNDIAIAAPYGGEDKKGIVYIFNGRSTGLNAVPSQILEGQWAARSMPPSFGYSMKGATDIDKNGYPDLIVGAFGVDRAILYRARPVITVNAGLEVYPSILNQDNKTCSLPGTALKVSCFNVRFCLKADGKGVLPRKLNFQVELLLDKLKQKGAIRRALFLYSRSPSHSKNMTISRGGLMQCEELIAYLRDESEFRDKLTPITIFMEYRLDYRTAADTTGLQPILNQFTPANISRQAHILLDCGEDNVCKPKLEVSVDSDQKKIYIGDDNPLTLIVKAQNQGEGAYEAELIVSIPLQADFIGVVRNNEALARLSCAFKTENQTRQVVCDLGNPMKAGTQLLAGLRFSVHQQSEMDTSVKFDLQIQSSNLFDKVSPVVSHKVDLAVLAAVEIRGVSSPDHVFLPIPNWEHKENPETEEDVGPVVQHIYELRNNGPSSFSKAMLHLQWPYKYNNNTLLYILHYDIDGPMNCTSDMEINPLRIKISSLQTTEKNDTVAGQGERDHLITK
T1 sequence (P06756 891-1048 limits assumed): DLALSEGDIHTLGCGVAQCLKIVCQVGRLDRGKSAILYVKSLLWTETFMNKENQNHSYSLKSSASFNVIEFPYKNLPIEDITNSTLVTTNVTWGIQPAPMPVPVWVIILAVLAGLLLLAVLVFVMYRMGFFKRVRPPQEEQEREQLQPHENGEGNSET
T1 sequence (G3HZ55 21-798): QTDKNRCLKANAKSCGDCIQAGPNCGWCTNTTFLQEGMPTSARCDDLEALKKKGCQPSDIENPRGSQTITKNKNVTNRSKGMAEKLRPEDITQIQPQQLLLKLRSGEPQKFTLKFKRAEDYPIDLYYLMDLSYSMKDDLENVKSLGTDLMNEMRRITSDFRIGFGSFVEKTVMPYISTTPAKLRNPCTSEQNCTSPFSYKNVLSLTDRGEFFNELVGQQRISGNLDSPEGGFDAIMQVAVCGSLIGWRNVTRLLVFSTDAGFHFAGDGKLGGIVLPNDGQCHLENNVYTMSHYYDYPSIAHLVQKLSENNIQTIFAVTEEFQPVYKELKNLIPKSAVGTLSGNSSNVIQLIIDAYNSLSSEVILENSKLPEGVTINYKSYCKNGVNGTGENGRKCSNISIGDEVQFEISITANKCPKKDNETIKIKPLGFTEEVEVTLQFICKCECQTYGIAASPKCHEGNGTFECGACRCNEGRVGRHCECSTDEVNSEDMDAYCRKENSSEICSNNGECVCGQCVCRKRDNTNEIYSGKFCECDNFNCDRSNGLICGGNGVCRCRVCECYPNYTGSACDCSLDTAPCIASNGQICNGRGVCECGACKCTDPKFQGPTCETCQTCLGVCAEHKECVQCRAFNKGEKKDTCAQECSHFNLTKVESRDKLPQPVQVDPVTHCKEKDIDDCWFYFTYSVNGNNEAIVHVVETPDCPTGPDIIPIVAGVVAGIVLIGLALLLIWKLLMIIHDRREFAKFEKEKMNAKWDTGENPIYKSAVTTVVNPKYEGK

Take `O=C(O)C[C@H](NC(=O)CNC(=O)c1cc(NC2=NCC(F)CN2)c2cn[nH]c2c1)c1cc(-n2cccn2)cc(C(F)(F)F)c1` (stereo partly drawn) [Example 8-(b), (3S)-3-(3-(1H-pyrazol-1-yl)-5-(trifluoromethyl)phenyl)-3-(2-(4-((5-fluoro-1,4,5,6-tetrahydropyrimidin-2-yl)amino)-1H-indazole-6-carboxamido)acetamido)propanoic acid]: the IC50 in series [1] was < 3 nM. Besides, the Papp A→B at 90 min, 10 μM in series [2] was in the range of 0.5 to 1 ×10⁻⁶ cm/s.

Turning to `O=C(O)C[C@H](NC(=O)CNC(=O)c1cc(NC2=NCC(F)CN2)c2cn[nH]c2c1)c1cccc(N2CCOCC2)c1` (stereo partly drawn) [Example 45-(b), (3S)-3-(2-(4-((5-fluoro-1,4,5,6-tetrahydropyrimidin-2-yl)amino)-1H-indazole-6-carboxamido)acetamido)-3-(3-morpholinophenyl)propanoic acid], the IC50 in series [1] was < 3 nM. Also, in series [2], the Papp A→B at 90 min, 10 μM was in the range of 0.5 to 1 ×10⁻⁶ cm/s.

As to `O=C(O)C[C@H](NC(=O)CNC(=O)c1cc(NC2=NCC(F)CN2)c2cn[nH]c2c1)c1cc(Cl)cc(OC(F)F)c1` (stereo partly drawn) [Example 25-(b), (3S)-3-(3-chloro-5-(difluoromethoxy)phenyl)-3-(2-(4-((5-fluoro-1,4,5,6-tetrahydropyrimidin-2-yl)amino)-1H-indazole-6-carboxamido)acetamido)propanoic acid], the IC50 in series [1] is < 3 nM. The Papp A→B at 90 min, 10 μM in series [2] is > 1 ×10⁻⁶ cm/s.

Turning to `O=C(O)C[C@H](NC(=O)CNC(=O)c1cc(NC2=NCC(F)CN2)cc2[nH]ncc12)c1cc(Br)cc(C(F)(F)F)c1` (stereo partly drawn) [Example 53-(b), (3S)-3-(3-bromo-5-(trifluoromethyl)phenyl)-3-(2-(6-((5-fluoro-1,4,5,6-tetrahydropyrimidin-2-yl)amino)-1H-indazole-4-carboxamido)acetamido)propanoic acid], the IC50 in series [1] is < 3 nM. The compound further showed an apparent permeability from apical to basolateral (Papp A→B) at 90 min, 10 μM in series [2] of 0.1 to 0.5 ×10⁻⁶ cm/s.

For the compound `O=C(O)C[C@H](NC(=O)CNC(=O)c1cc(NC2=NCC(F)CN2)c2cn[nH]c2c1)c1cc(Br)cc(I)c1` (stereo partly drawn) [Example 20-(b), (3S)-3-(3-bromo-5-iodophenyl)-3-(2-(4-((5-fluoro-1,4,5,6-tetrahydropyrimidin-2-yl)amino)-1H-indazole-6-carboxamido)acetamido)propanoic acid], the IC50 in series [1] was < 3 nM. Further, the Papp A→B at 90 min, 10 μM in series [2] is > 1 ×10⁻⁶ cm/s.

As for `O=C(O)C[C@H](NC(=O)CNC(=O)c1cc(NC2=NCC(F)CN2)c2cn[nH]c2c1)c1cc(Br)cc(OC(F)(F)F)c1` (stereo partly drawn) [Example 32-(b), (3S)-3-(3-bromo-5-(trifluoromethoxy)phenyl)-3-(2-(4-((5-fluoro-1,4,5,6-tetrahydropyrimidin-2-yl)amino)-1H-indazole-6-carboxamido)acetamido)propanoic acid], the IC50 in series [1] is < 3 nM. Also, the Papp A→B at 90 min, 10 μM in series [2] is > 1 ×10⁻⁶ cm/s.

Regarding `O=C(O)C[C@H](NC(=O)CNC(=O)c1cc(NC2=NCC(F)CN2)c2cn[nH]c2c1)c1cc(Br)cc(OC(F)F)c1` (stereo partly drawn) [Example 26-(b), (3S)-3-(3-bromo-5-(difluoromethoxy)phenyl)-3-(2-(4-((5-fluoro-1,4,5,6-tetrahydropyrimidin-2-yl)amino)-1H-indazole-6-carboxamido)acetamido)propanoic acid], in series [1], the IC50 was < 3 nM. In addition, the Papp A→B at 90 min, 10 μM in series [2] is > 1 ×10⁻⁶ cm/s.

For the compound `O=C(O)C[C@H](NC(=O)CNC(=O)c1cc(NC2=NCC(F)CN2)c2cn[nH]c2c1)c1cccc(OC2CC2)c1` (stereo partly drawn) [Example 40-(b), (3S)-3-(3-cyclopropoxyphenyl)-3-(2-(4-((5-fluoro-1,4,5,6-tetrahydropyrimidin-2-yl)amino)-1H-indazole-6-carboxamido)acetamido)propanoic acid], in series [1], the IC50 is < 3 nM. Also, the Papp A→B at 90 min, 10 μM in series [2] was > 1 ×10⁻⁶ cm/s.

As to `O=C(O)C[C@H](NC(=O)CNC(=O)c1cc(NC2=NCC(F)CN2)cc2[nH]ncc12)c1cccc(C(F)(F)F)c1` (stereo partly drawn) [Example 56-(b), (3S)-3-(2-(6-((5-fluoro-1,4,5,6-tetrahydropyrimidin-2-yl)amino)-1H-indazole-4-carboxamido)acetamido)-3-(3-(trifluoromethyl)phenyl)propanoic acid], the half-maximal inhibitory concentration (IC50) in series [1] was in the range of 3 to 10 nM. Further, the Papp A→B at 90 min, 10 μM in series [2] lay in the range of 0.1 to 0.5 ×10⁻⁶ cm/s.

Consider `O=C(O)C[C@H](NC(=O)CNC(=O)c1cc(NC2=NCC(F)CN2)c2cn[nH]c2c1)c1cc(Br)ccc1F` (stereo partly drawn) [Example 23-(b), (3S)-3-(5-bromo-2-fluorophenyl)-3-(2-(4-((5-fluoro-1,4,5,6-tetrahydropyrimidin-2-yl)amino)-1H-indazole-6-carboxamido)acetamido)propanoic acid], for which the IC50 in series [1] is < 3 nM. Moreover, in series [2], the Papp A→B at 90 min, 10 μM was > 1 ×10⁻⁶ cm/s.

For the compound `O=C(O)C[C@H](NC(=O)CNC(=O)c1cc(NC2=NCC(F)CN2)c2cn[nH]c2c1)c1cc(Cl)cc(Br)c1` (stereo partly drawn) [Example 18-(b), (3S)-3-(3-bromo-5-chlorophenyl)-3-(2-(4-((5-fluoro-1,4,5,6-tetrahydropyrimidin-2-yl)amino)-1H-indazole-6-carboxamido)acetamido)propanoic acid], the IC50 in series [1] was < 3 nM. For the same compound, in series [2], the Papp A→B at 90 min, 10 μM was > 1 ×10⁻⁶ cm/s.

As to `O=C(O)C[C@H](NC(=O)CNC(=O)c1cc(NC2=NCC(F)CN2)c2cn[nH]c2c1)c1cc(OC(F)F)cc(C(F)(F)F)c1` (stereo partly drawn) [Example 24-(b), (3S)-3-(3-(difluoromethoxy)-5-(trifluoromethyl)phenyl)-3-(2-(4-((5-fluoro-1,4,5,6-tetrahydropyrimidin-2-yl)amino)-1H-indazole-6-carboxamido)acetamido)propanoic acid], in series [1], the IC50 was < 3 nM. The compound also yielded a Papp A→B at 90 min, 10 μM in series [2] of 0.5 to 1 ×10⁻⁶ cm/s.

Regarding `O=C(O)C[C@H](NC(=O)CNC(=O)c1cc(NC2=NCC(F)CN2)c2cn[nH]c2c1)c1ccc(F)c(OC(F)F)c1` (stereo partly drawn) [Example 27-(b), (3S)-3-(3-(difluoromethoxy)-4-fluorophenyl)-3-(2-(4-((5-fluoro-1,4,5,6-tetrahydropyrimidin-2-yl)amino)-1H-indazole-6-carboxamido)acetamido)propanoic acid], the IC50 in series [1] was < 3 nM. Moreover, the Papp A→B at 90 min, 10 μM in series [2] is > 1 ×10⁻⁶ cm/s.

Regarding `O=C(O)C[C@H](NC(=O)CNC(=O)c1cc(NC2=NCC(F)CN2)cc2[nH]ncc12)c1ccc(F)c(C(F)(F)F)c1` (stereo partly drawn) [Example 55-(b), (3S)-3-(2-(6-((5-fluoro-1,4,5,6-tetrahydropyrimidin-2-yl)amino)-1H-indazole-4-carboxamido)acetamido)-3-(4-fluoro-3-(trifluoromethyl)phenyl)propanoic acid], the IC50 in series [1] is < 3 nM. The compound further came in with a Papp A→B at 90 min, 10 μM in series [2] of 0.1 to 0.5 ×10⁻⁶ cm/s.

A word on the IC50: it is the midpoint of a concentration-inhibition curve. The term Papp A→B denotes the apparent permeability from the apical to the basolateral side of a cell layer.
